The results in this text go back to patent US9029356B2, “Substituted indazole derivatives active as kinase inhibitors” (Nerviano Medical Services S.R.L., priority 2007, dated 2015).

One experiment deals with ALK (Homo sapiens (Human), UniProt Q9UM73). The experiment in a line: Biochemical assay for inhibitors of ALK kinase activity. The following applies: 20 nM enzyme, 8 microM ATP, 2 microM MBP. The source says: Preparation of ALK Cytoplasmic Domain for Use in Biochemical Assay
For cloning purposes, the oligonucleotides included attB sites in order to obtain an attB-flanked PCR product suitable for cloning using the Gateway technology (Invitrogen). Furthermore, for purification purposes, forward primer included a PreScission cleavage site (Amersham Biosciences). The resulting PCR product was cloned in the baculovirus expression vector pVL1393 (Invitrogen) Gateway-modified. For expression and purification purpose, a GST tag was added N-terminal to the ALK cytoplasmic domain. Cloning was performed according to the protocols described in the Gateway manual (Invitrogen).
Affinity purified GST-ALK was loaded on a Heparin Sepharose™ FF (Amersham Biosciences) column and eluted with 50 mM NaCl, 25 mM TRIS pH 7.5, 2 mM DTT, 20% glycerol.
Biochemical Assay for Inhibitors of ALK Kinase Activity

A further experiment concerns the target IGF-1R (Homo sapiens (Human), UniProt P08069). The experiment in a line: Biochemical assay for inhibitors of IGF-1R kinase activity. The following applies: 6 nM enzyme, 6 microM ATP, 10 microM peptide substrate.

Sequence of ALK (Q9UM73 1060-1620): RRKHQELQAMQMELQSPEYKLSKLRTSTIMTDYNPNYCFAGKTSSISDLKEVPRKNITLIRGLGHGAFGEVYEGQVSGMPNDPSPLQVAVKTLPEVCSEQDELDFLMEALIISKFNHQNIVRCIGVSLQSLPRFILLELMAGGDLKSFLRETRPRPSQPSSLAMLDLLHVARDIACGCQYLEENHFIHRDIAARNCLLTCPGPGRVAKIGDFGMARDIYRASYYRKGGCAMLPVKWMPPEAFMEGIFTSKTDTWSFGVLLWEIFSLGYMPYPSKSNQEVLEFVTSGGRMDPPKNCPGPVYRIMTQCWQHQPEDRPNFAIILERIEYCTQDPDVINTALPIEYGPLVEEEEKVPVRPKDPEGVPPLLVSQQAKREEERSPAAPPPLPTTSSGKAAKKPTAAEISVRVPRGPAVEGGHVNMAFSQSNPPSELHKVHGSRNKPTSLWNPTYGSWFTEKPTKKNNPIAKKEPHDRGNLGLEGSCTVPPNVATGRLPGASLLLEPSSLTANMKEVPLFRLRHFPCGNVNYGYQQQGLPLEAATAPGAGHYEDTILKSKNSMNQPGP
Sequence of IGF-1R (P08069 960-1367): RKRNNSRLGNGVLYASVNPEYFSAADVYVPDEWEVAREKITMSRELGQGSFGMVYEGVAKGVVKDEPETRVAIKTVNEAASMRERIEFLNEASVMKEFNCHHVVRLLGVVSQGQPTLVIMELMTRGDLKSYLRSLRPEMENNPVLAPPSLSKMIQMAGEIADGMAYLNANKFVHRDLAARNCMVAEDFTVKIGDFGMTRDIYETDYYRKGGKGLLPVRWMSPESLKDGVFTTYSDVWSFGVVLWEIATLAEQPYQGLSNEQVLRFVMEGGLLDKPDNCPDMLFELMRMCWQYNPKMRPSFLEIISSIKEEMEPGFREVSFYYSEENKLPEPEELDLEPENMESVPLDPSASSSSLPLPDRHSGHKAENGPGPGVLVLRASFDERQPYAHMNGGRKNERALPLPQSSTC
Description for IGF-1R: Biochemical Assay for Inhibitors of IGF-1 R Kinase Activity The inhibitory activity of putative kinase inhibitors and the potency of selected compounds were determined using a trans-phosphorylation assay. A specific substrate was incubated with the kinase in appropriate buffer conditions in the presence of ATP traced with ^33P-γ-ATP (gamma phosphate-labeled, RedivueTM Code Number AH9968, 1000-3000 Ci/mmole, Amersham Biosciences Piscataway, N.J., USA), optimal cofactors and test compound. At the end of the phosphorylation reaction, more than 98% cold and radioactive ATP were captured by an excess of Dowex ion exchange resin. The resin was allowed to settle to the bottom of reaction wells by gravity. Supernatant, containing substrate peptide, was subsequently withdrawn and transferred into a counting plate, and radioactivity (corresponding to phosphate incorporated into peptide) was evaluated by β-counting. […] Prior to starting the kinase inhibition assay, IGF-1R was pre-phosphorylated in order to linearize reaction kinetics. […] The peptide was obtained in batches of >95% peptide purity from American Peptide Company, Inc. (Sunnyvale, Calif., USA). […] Compounds showing desired inhibition were further analysed in order to study the potency of the inhibitor through IC50 calculation. […]

As to `CN1CCN(c2ccc(C(=O)Nc3n[nH]c4ccc(Cc5cc(F)cc(F)c5)cc34)cc2)CC1` [Cpd 4, N-[5-(3,5-Difluoro-benzyl)-1H-indazol-3-yl]-4-(4-methyl-piperazin-1-yl)-benzamide], the IC50 (commonly the point on the concentration scale where inhibition reaches its midpoint) against ALK is 0.207 µM.
Take `CN1CCN(c2ccc(C(=O)Nc3n[nH]c4ccc(Cc5cc(F)cc(F)c5)cc34)c(NC3CCCCC3)c2)CC1` [Cpd 18, 2-Cyclohexylamino-N-[5-(3,5-difluoro-benzyl)-1H-indazol-3-yl]-4-(4-methyl-piperazin-1-yl)-benzamide]: the IC50 against IGF-1R came to 6.07 µM; against ALK it was 1.77 µM.
The molecule `COCCNc1cc(N2CCN(C)CC2)ccc1C(=O)Nc1n[nH]c2ccc(Cc3cc(F)cc(F)c3)cc12` [Cpd 26, N-[5-(3,5-Difluoro-benzyl)-1H-indazol-3-yl]-2-(2-methoxy-ethylamino)-4-(4-methyl-piperazin-1-yl)-benzamide] came in with an IC50 against ALK of 0.411 µM.
